Data reported in patent US20170022171A1, “2,5-DISUBSTITUTED CYCLOPENTANECARBOXYLIC ACIDS AND THEIR USE” (Bayer Pharma Aktiengesellschaft, priority 2014, published 2017).

Tested on: rat hepatocytes
Assay: Hepatocyte assay for determination of metabolic stability
Assay type: in vitro ADME
Conditions: after incubation with rat hepatocytes
Procedure: The metabolic stability of test compounds towards hepatocytes is determined by incubating the compounds at low concentrations (preferably below or around 1 μM) and at low cell counts (preferably at 1*10^6 cells/ml) in order to ensure maximum linearity of kinetic conditions in the experiment. Seven samples from the incubation solution are taken for the LC-MS analysis within a fixed time pattern, in order to determine the half-life (i.e. the degradation) of the particular compound. This half life is used to calculate various “Clearance” parameters (CL) and “Fmax” values (see below).
The CL and Fmax values are a measure of the phase 1 and phase 2 metabolism of the compounds in the hepatocytes. In order to minimize the influence of the organic solvent on the enzymes in the incubation batches, the concentration thereof is generally limited to 1% (acetonitrile) or 0.1% (DMSO).
For all species and breeds, a hepatocyte cell count in the liver of 1.1*10^8 cells/g of liver is expected.
The parameters calculated and the meanings thereof are: • Fmax well-stirred [%] maximum possible bioavailability after oral administration • Calculation: (1−CLblood well-stirred/QH)*100 • CLblood well-stirred [L/(h*kg)] calculated blood clearance (well-stirred model) • Calculation: (QH*CL′intrinsic)/(QH+CL′intrinsic) • CL′intrinsic[ml/(min*kg)] maximum ability of the liver (of the hepatocytes) to metabolize a compound (assuming that the liver blood flow is not rate-limiting) • Calculation: CL′intrinsic, apparent*species-specific hepatocyte count [1.1*10^8/g liver]*species-specific liver weight [g/kg] • CL′intrinsic, apparent[ml/(min*mg)] normalizes the elimination constant by dividing it by the hepatocyte cell count x used (x*10^6/ml) • Calculation: ke1[1/min]/(cell count [x*10^6]/incubation volume [ml]) • (QH=species-specific liver blood flow).

For O=C(O)[C@H]1[C@H](Cn2nnc3ccc(C(F)(F)F)cc3c2=O)CC[C@@H]1C(=O)c1ccc(OCc2ccccc2)cc1 (racemic) [Example 11, (+/−)-(1RS,2RS,5SR)-2-[4-(Benzyloxy)benzoyl]-5-{[4-oxo-6-(trifluoromethyl)-1,2,3-benzotriazin-3(4H)-yl]methyl}cyclopentanecarboxylic acid], the “CLblood (calculated blood clearance, well-stirred)” value was 18.7 mL/min/kg and the “Fmax (maximum possible bioavailability after oral administration, well-stirred)” value was 73.3%.
